Source: the NIST ThermoML archive (doi:10.1016/j.jct.2017.08.004)
Where “and” joins values, the source holds several entries; their conditions need not be identical. Identical values can stand only once.

Test: molar heat capacity at constant pressure
Conditions: 101.33 kPa, Crystal

OC[C@@H](O)[C@H](O)[C@@H](O)CO [xylitol]
Conditions | molar heat capacity at constant pressure
1 K, relaxation calorimetry | 0.0008271 J/K/mol
1.922 K, relaxation calorimetry | 0.005594 J/K/mol
2 K, relaxation calorimetry | 0.006331 J/K/mol
2.139 K, relaxation calorimetry | 0.007737 J/K/mol
2.374 K, relaxation calorimetry | 0.01068 J/K/mol
2.635 K, relaxation calorimetry | 0.0145 J/K/mol
2.93 K, relaxation calorimetry | 0.02028 J/K/mol
3 K, relaxation calorimetry | 0.02164 J/K/mol
3.25 K, relaxation calorimetry | 0.02792 J/K/mol
3.603 K, relaxation calorimetry | 0.03808 J/K/mol
4 K, relaxation calorimetry | 0.05265 J/K/mol and 0.05269 J/K/mol
4.437 K, relaxation calorimetry | 0.07193 J/K/mol
4.924 K, relaxation calorimetry | 0.1019 J/K/mol
5 K, relaxation calorimetry | 0.1065 J/K/mol
5.466 K, relaxation calorimetry | 0.1404 J/K/mol
6 K, relaxation calorimetry | 0.191 J/K/mol
6.063 K, relaxation calorimetry | 0.1974 J/K/mol
6.726 K, relaxation calorimetry | 0.2771 J/K/mol
7 K, relaxation calorimetry | 0.3152 J/K/mol
7.46 K, relaxation calorimetry | 0.3882 J/K/mol
8 K, relaxation calorimetry | 0.4898 J/K/mol
8.276 K, relaxation calorimetry | 0.5472 J/K/mol
9 K, relaxation calorimetry | 0.7186 J/K/mol
9.181 K, relaxation calorimetry | 0.7649 J/K/mol
10 K, relaxation calorimetry | 1.004 J/K/mol
10.2 K, relaxation calorimetry | 1.063 J/K/mol
11.29 K, relaxation calorimetry | 1.456 J/K/mol
12.52 K, relaxation calorimetry | 1.978 J/K/mol
13.9 K, relaxation calorimetry | 2.652 J/K/mol
15 K, relaxation calorimetry | 3.243 J/K/mol
15.43 K, relaxation calorimetry | 3.486 J/K/mol
17.11 K, relaxation calorimetry | 4.536 J/K/mol
19 K, relaxation calorimetry | 5.817 J/K/mol
20 K, relaxation calorimetry | 6.537 J/K/mol
21.08 K, relaxation calorimetry | 7.334 J/K/mol
23.4 K, relaxation calorimetry | 9.137 J/K/mol
25 K, relaxation calorimetry | 10.45 J/K/mol
25.98 K, relaxation calorimetry | 11.24 J/K/mol
28.85 K, relaxation calorimetry | 13.71 J/K/mol
30 K, relaxation calorimetry | 14.71 J/K/mol
32.02 K, relaxation calorimetry | 16.53 J/K/mol
35 K, relaxation calorimetry | 19.23 J/K/mol
35.54 K, relaxation calorimetry | 19.78 J/K/mol
39.45 K, relaxation calorimetry | 23.43 J/K/mol
40 K, relaxation calorimetry | 23.95 J/K/mol
43.77 K, relaxation calorimetry | 27.59 J/K/mol
45 K, relaxation calorimetry | 28.76 J/K/mol
48.58 K, relaxation calorimetry | 32.08 J/K/mol
50 K, relaxation calorimetry | 33.53 J/K/mol
53.91 K, relaxation calorimetry | 37.13 J/K/mol
55 K, relaxation calorimetry | 38.17 J/K/mol
59.82 K, relaxation calorimetry | 42.74 J/K/mol
60 K, relaxation calorimetry | 42.76 J/K/mol
65 K, relaxation calorimetry | 47.51 J/K/mol
66.39 K, relaxation calorimetry | 48.78 J/K/mol
70 K, relaxation calorimetry | 52.03 J/K/mol
73.7 K, relaxation calorimetry | 55.27 J/K/mol
75 K, relaxation calorimetry | 56.38 J/K/mol
80 K, relaxation calorimetry | 60.61 J/K/mol
81.8 K, relaxation calorimetry | 62.47 J/K/mol
85 K, relaxation calorimetry | 64.74 J/K/mol
90 K, relaxation calorimetry | 68.78 J/K/mol
90.79 K, relaxation calorimetry | 69.45 J/K/mol
95 K, relaxation calorimetry | 72.72 J/K/mol
100 K, relaxation calorimetry | 76.57 J/K/mol
100.73 K, relaxation calorimetry | 76.61 J/K/mol
110 K, relaxation calorimetry | 84.01 J/K/mol
110.86 K, relaxation calorimetry | 84.59 J/K/mol
120 K, relaxation calorimetry | 91.15 J/K/mol
120.92 K, relaxation calorimetry | 91.94 J/K/mol
130 K, relaxation calorimetry | 98.03 J/K/mol
130.99 K, relaxation calorimetry | 98.86 J/K/mol
140 K, relaxation calorimetry | 104.68 J/K/mol
141.06 K, relaxation calorimetry | 105.29 J/K/mol
150 K, relaxation calorimetry | 111.17 J/K/mol
151.18 K, relaxation calorimetry | 112.01 J/K/mol
160 K, relaxation calorimetry | 117.52 J/K/mol
161.27 K, relaxation calorimetry | 118.23 J/K/mol
170 K, relaxation calorimetry | 123.79 J/K/mol
171.37 K, relaxation calorimetry | 124.62 J/K/mol
180 K, relaxation calorimetry | 130 J/K/mol
181.44 K, relaxation calorimetry | 131.13 J/K/mol
188.15 K, Small sample (50 mg) DSC | 129.73 J/K/mol
189.15 K, Small sample (50 mg) DSC | 130.13 J/K/mol
190 K, relaxation calorimetry | 136.19 J/K/mol
190.15 K, Small sample (50 mg) DSC | 131.3 J/K/mol
191.15 K, Small sample (50 mg) DSC | 132.22 J/K/mol
191.51 K, relaxation calorimetry | 137.32 J/K/mol
192.15 K, Small sample (50 mg) DSC | 132.97 J/K/mol
193.15 K, Small sample (50 mg) DSC | 133.63 J/K/mol
194.15 K, Small sample (50 mg) DSC | 134.85 J/K/mol
195.15 K, Small sample (50 mg) DSC | 136.05 J/K/mol
196.15 K, Small sample (50 mg) DSC | 137.13 J/K/mol
197.15 K, Small sample (50 mg) DSC | 137.99 J/K/mol
198.15 K, Small sample (50 mg) DSC | 138.87 J/K/mol
199.15 K, Small sample (50 mg) DSC | 139.73 J/K/mol
200 K, relaxation calorimetry | 142.38 J/K/mol
200.15 K, Small sample (50 mg) DSC | 140.65 J/K/mol
201.15 K, Small sample (50 mg) DSC | 141.4 J/K/mol
201.63 K, relaxation calorimetry | 143.25 J/K/mol
202.15 K, Small sample (50 mg) DSC | 142.18 J/K/mol
203.15 K, Small sample (50 mg) DSC | 143.08 J/K/mol
204.15 K, Small sample (50 mg) DSC | 143.76 J/K/mol
205.15 K, Small sample (50 mg) DSC | 144.29 J/K/mol
206.15 K, Small sample (50 mg) DSC | 145.08 J/K/mol
207.15 K, Small sample (50 mg) DSC | 145.87 J/K/mol
208.15 K, Small sample (50 mg) DSC | 146.4 J/K/mol
209.15 K, Small sample (50 mg) DSC | 147.11 J/K/mol
210 K, relaxation calorimetry | 148.6 J/K/mol
210.15 K, Small sample (50 mg) DSC | 147.83 J/K/mol
211.15 K, Small sample (50 mg) DSC | 148.54 J/K/mol
211.72 K, relaxation calorimetry | 149.26 J/K/mol
212.15 K, Small sample (50 mg) DSC | 149.22 J/K/mol
213.15 K, Small sample (50 mg) DSC | 149.76 J/K/mol
214.15 K, Small sample (50 mg) DSC | 150.56 J/K/mol
215.15 K, Small sample (50 mg) DSC | 151.28 J/K/mol
216.15 K, Small sample (50 mg) DSC | 152.02 J/K/mol
217.15 K, Small sample (50 mg) DSC | 152.63 J/K/mol
218.15 K, Small sample (50 mg) DSC | 153.29 J/K/mol
219.15 K, Small sample (50 mg) DSC | 154.13 J/K/mol
220 K, relaxation calorimetry | 154.86 J/K/mol
220.15 K, Small sample (50 mg) DSC | 154.86 J/K/mol
221.15 K, Small sample (50 mg) DSC | 155.65 J/K/mol
221.81 K, relaxation calorimetry | 156.12 J/K/mol
222.15 K, Small sample (50 mg) DSC | 156.3 J/K/mol
223.15 K, Small sample (50 mg) DSC | 157.01 J/K/mol
224.15 K, Small sample (50 mg) DSC | 157.66 J/K/mol
225.15 K, Small sample (50 mg) DSC | 158.24 J/K/mol
226.15 K, Small sample (50 mg) DSC | 158.84 J/K/mol
227.15 K, Small sample (50 mg) DSC | 159.41 J/K/mol
228.15 K, Small sample (50 mg) DSC | 160.16 J/K/mol
229.15 K, Small sample (50 mg) DSC | 160.62 J/K/mol
230 K, relaxation calorimetry | 161.19 J/K/mol
230.15 K, Small sample (50 mg) DSC | 161.2 J/K/mol
231.15 K, Small sample (50 mg) DSC | 162.12 J/K/mol
231.89 K, relaxation calorimetry | 162.24 J/K/mol
232.15 K, Small sample (50 mg) DSC | 162.73 J/K/mol
233.15 K, Small sample (50 mg) DSC | 163.22 J/K/mol
234.15 K, Small sample (50 mg) DSC | 164.01 J/K/mol
235.15 K, Small sample (50 mg) DSC | 164.81 J/K/mol
236.15 K, Small sample (50 mg) DSC | 165.55 J/K/mol
237.15 K, Small sample (50 mg) DSC | 166.14 J/K/mol
238.15 K, Small sample (50 mg) DSC | 166.88 J/K/mol
239.15 K, Small sample (50 mg) DSC | 167.65 J/K/mol
240 K, relaxation calorimetry | 167.6 J/K/mol
240.15 K, Small sample (50 mg) DSC | 168.23 J/K/mol
241.15 K, Small sample (50 mg) DSC | 168.92 J/K/mol
241.89 K, relaxation calorimetry | 168.66 J/K/mol
242.15 K, Small sample (50 mg) DSC | 169.52 J/K/mol
243.15 K, Small sample (50 mg) DSC | 170.22 J/K/mol
244.15 K, Small sample (50 mg) DSC | 170.79 J/K/mol
245.15 K, Small sample (50 mg) DSC | 171.35 J/K/mol
246.15 K, Small sample (50 mg) DSC | 172.07 J/K/mol
247.15 K, Small sample (50 mg) DSC | 172.62 J/K/mol
248.15 K, Small sample (50 mg) DSC | 173.32 J/K/mol
249.15 K, Small sample (50 mg) DSC | 173.97 J/K/mol
250 K, relaxation calorimetry | 174.1 J/K/mol
250.15 K, Small sample (50 mg) DSC | 174.75 J/K/mol
251.15 K, Small sample (50 mg) DSC | 175.38 J/K/mol
252.05 K, relaxation calorimetry | 175.66 J/K/mol
252.15 K, Small sample (50 mg) DSC | 176.09 J/K/mol
253.15 K, Small sample (50 mg) DSC | 176.77 J/K/mol
254.15 K, Small sample (50 mg) DSC | 177.72 J/K/mol
255.15 K, Small sample (50 mg) DSC | 178.41 J/K/mol
256.15 K, Small sample (50 mg) DSC | 179.25 J/K/mol
257.15 K, Small sample (50 mg) DSC | 180.21 J/K/mol
258.15 K, Small sample (50 mg) DSC | 180.68 J/K/mol
259.15 K, Small sample (50 mg) DSC | 181.27 J/K/mol
260 K, relaxation calorimetry | 180.7 J/K/mol
260.15 K, Small sample (50 mg) DSC | 182.15 J/K/mol
